Source: ChEMBL document CHEMBL1201862, “PubChem BioAssay data set” (2004)
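Method: 48-hour compound exposure of cells in 96-well plates, five concentrations, linear interpolation of endpoints. At the GI50, growth is halved.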 The source made the active and inactive calls. Rule as the data show it: active = GI50 up to about 1.1 µM and inactive = higher.

Legend:
Experiment in all cases: inhibition of tumour cell growth, NCI panel, 48 h
NCI-H522 = system: NCI-H522
SF-295 = system: SF-295
A498 = system: A498
SK-MEL-2 = system: SK-MEL-2
CAKI-1 = system: CAKI-1
OVCAR-4 = system: OVCAR-4
HL-60 = system: HL-60
UACC-62 = system: UACC-62
RPMI-8226 = system: RPMI-8226
DLD-1 = system: DLD-1
ACHN = system: ACHN
SNB-75 = system: SNB-75
HCT-116 = system: HCT-116
HOP-62 = system: HOP-62
SR = system: SR
SW-620 = system: SW-620
UO-31 = system: UO-31
SF-268 = system: SF-268
HOP-92 = system: HOP-92
NCI/ADR-RES = system: NCI/ADR-RES

Measured: GI50

CNC(=O)N(C)COC
inactive: NCI-H522 > 100 µM | SF-295 > 100 µM | A498 > 100 µM | SK-MEL-2 > 100 µM | CAKI-1 > 100 µM | OVCAR-4 > 100 µM | HL-60 > 100 µM | UACC-62 > 100 µM | RPMI-8226 > 100 µM | DLD-1 > 100 µM | ACHN > 100 µM | SNB-75 > 100 µM | HCT-116 > 100 µM | HOP-62 > 100 µM | SR > 100 µM | SW-620 > 100 µM | UO-31 > 100 µM | SF-268 > 100 µM

O=c1c2cccnc2oc2c(Cl)cc(-c3nnn[nH]3)cc12
inactive: HOP-92 68.7 µM | NCI/ADR-RES > 100 µM | A498 > 100 µM | SK-MEL-2 > 100 µM | CAKI-1 > 100 µM | OVCAR-4 > 100 µM | HL-60 > 100 µM | UACC-62 > 100 µM | ACHN > 100 µM | SNB-75 > 100 µM | HCT-116 > 100 µM | HOP-62 > 100 µM | SR > 100 µM | SW-620 > 100 µM | UO-31 24.7 µM | SF-268 > 100 µM

CC(C)(C)OC(=O)NC(Cc1c[nH]cn1)C(=O)N1CCCC1C(N)=O (stereo not drawn)
inactive: HOP-92 > 100 µM | NCI-H522 > 100 µM | NCI/ADR-RES > 100 µM | SF-295 > 100 µM | A498 > 100 µM | SK-MEL-2 > 100 µM | CAKI-1 > 100 µM | OVCAR-4 > 100 µM | HL-60 > 100 µM | UACC-62 > 100 µM | RPMI-8226 > 100 µM | ACHN > 100 µM | SNB-75 > 100 µM | HCT-116 > 100 µM | HOP-62 > 100 µM | SR > 100 µM | SW-620 > 100 µM | UO-31 > 100 µM | SF-268 > 100 µM

CCOc1ccc2nc(NC(=O)C(=O)C(C(=O)c3ccccc3F)C3OC(=O)c4ccccc43)sc2c1 (stereo not drawn)
inactive: NCI-H522 14 µM | A498 25.8 µM | SK-MEL-2 19.6 µM | CAKI-1 31.8 µM | OVCAR-4 19.2 µM | HL-60 16.8 µM | UACC-62 14.6 µM | RPMI-8226 19.1 µM | DLD-1 25.3 µM | ACHN 33.2 µM | SNB-75 15.1 µM | HCT-116 17.6 µM | HOP-62 23.5 µM | SR 11.7 µM | SW-620 19.3 µM | UO-31 18.4 µM | SF-268 16.1 µM

CC(=O)O[C@@H]1CN(S(=O)(=O)c2ccc(C)cc2)C[C@@H]1C1CCCCC1
inactive: HOP-92 14.7 µM | NCI/ADR-RES 20.6 µM | SF-295 37.9 µM | A498 20 µM | SK-MEL-2 17 µM | CAKI-1 19 µM | OVCAR-4 50.6 µM | UACC-62 16.1 µM | RPMI-8226 25.5 µM | ACHN 37.5 µM | SNB-75 19.8 µM | HOP-62 21.9 µM | SR 23.4 µM | SW-620 20.4 µM | UO-31 31 µM | SF-268 16.8 µM

C=CCn1c(=O)c(C(=O)Nc2nc(C34CC5CC(CC(C5)C3)C4)cs2)c(O)c2ccccc21
inactive: HOP-92 28.4 µM | NCI-H522 44 µM | NCI/ADR-RES 15 µM | SF-295 17.9 µM | A498 25.3 µM | CAKI-1 58.9 µM | OVCAR-4 39.2 µM | HL-60 23.4 µM | RPMI-8226 20.1 µM | ACHN 29.5 µM | SNB-75 > 100 µM | HCT-116 30 µM | HOP-62 30.6 µM | SR 37.1 µM | SW-620 23.5 µM | UO-31 31.8 µM | SF-268 > 10 µM

CC(=O)NC1C(O)C(O)C(CO)OC1n1nc(SCc2ccccc2)c(=O)[nH]c1=O (stereo not drawn)
inactive: HOP-92 > 100 µM | NCI-H522 > 100 µM | NCI/ADR-RES > 100 µM | SF-295 > 100 µM | A498 > 100 µM | SK-MEL-2 > 100 µM | CAKI-1 > 100 µM | OVCAR-4 > 100 µM | HL-60 > 100 µM | UACC-62 > 100 µM | RPMI-8226 > 100 µM | ACHN > 100 µM | SNB-75 > 65 µM | HCT-116 > 100 µM | HOP-62 > 100 µM | SR > 100 µM | SW-620 > 100 µM | UO-31 > 100 µM | SF-268 > 100 µM

[O-][S+]1[C@H](c2ccccc2)c2c(-c3ccccc3)sc(-c3ccccc3)c2[C@@H]1c1ccccc1 (stereo partly drawn)
inactive: HOP-92 2.96 µM | NCI-H522 3.23 µM | SF-295 > 100 µM | SK-MEL-2 32.7 µM | CAKI-1 15.2 µM | OVCAR-4 8.49 µM | HL-60 4.31 µM | UACC-62 39.6 µM | RPMI-8226 6.04 µM | DLD-1 33 µM | ACHN 5.89 µM | SNB-75 12.4 µM | HOP-62 > 100 µM | SW-620 13.2 µM | UO-31 65.6 µM | SF-268 > 100 µM
